Patent US8633212B2, “Inhibitors of beta-secretase” (Vitae Pharmaceuticals, Inc., priority 2009, dated 2014)
Where two headings read alike, the source gives them in different places.

What was measured:
[1] = target: truncated human beta-secretase (residues 1-458, His6-tagged at the C-terminus) (Homo sapiens (Human), UniProt P56817); assay: BACE enzyme assay (fluorescence quench assay, Example 434A); format: biochemical; conditions: read-out: IC50
[2] = target: H4 neuroglioma cell line stably expressing APP with the KM-NL Swedish mutation (H4-APPsw); soluble Amyloid Beta 1-40 (Aβ 1-40) (Homo sapiens (Human), UniProt P56817); assay: BACE cell assay: soluble Aβ 1-40 in culture media of H4-APPsw cells (AlphaLISA/ELISA); format: cell-based; conditions: in vitro cell activity; H4-APPsw cells treated overnight, secreted Aβ 1-40 in culture media
Description: H4 neuroglioma cell line that stably expresses Amyloid Precursor Protein (APP) containing the KM-NL Swedish mutation (H4-APPsw) was generated. For the assay, cells are treated overnight in the presence of inhibitor and the culture media are subjected to ELISA analysis of soluble Amyloid Beta 1-40 (Aβ 1-40).
Generation and Maintenance of H4-APPsw Cell Line
H4 neuroglioma cell line was cultured in DMEM with 10% FBS and 1% penicillin/streptomycin (Culture Medium) at 37° C., 5% CO2. […] 24 hrs after transfection, the cells were replaced into three new plates (150 mm) in fresh Culture Medium with 250 ug/mL Zeocin. […] The levels of APPsw expression were analyzed by immunoblotting and the production of Aβ 1-40 was detected by ELISA of culture supernatants. The selected clones are maintained in Culture Medium with 250 μg/mL Zeocin and routinely split in 3-4 days to maintain 20-80% confluence.
Final Assay Conditions (96-Well Plate)
Split H4-APPsw cells in Culture Medium and culture overnight such that cells will be ˜80% confluent next morning.
Create Compound Dilution Plate.
After determining the desired final concentration of compound to be tested, create a 500× dilution plate. Add DMSO, but not inhibitor, to each well of Column 1. […] Add compounds of interest at 500× desired final concentration to wells A3-A10. […] Dilute contents of Row A 1:3 in Row B, then continue through Rows C-H.
Add 4 μL 5 mM control compound to Media Plate wells A1-D1 for determination of full inhibition.
With a multichannel pipettor, mix each well of Media Plate several times to insure homogeneity. […] Next, place Medium Plate and Cell Plate in the incubator.
Trypsinize and count H4-APPsw cells. Dilute cells 6×10^5 cells/mL in Culture Medium and remove Cell Plate from incubator. Vortex cells to homogeneity, then using a multichannel repeating pipettor, add 100 μL cell suspension to Cell Plate, adding cells from Row H to Row A. Place Cell Plate in incubator.
Change media in Cell Plate.
After 5 h, check Cell Plate by microscope to insure cells are attached. In culture hood, remove media from Cell Plate using multichannel repeating pipettor. Add 100 μl Culture Medium to each well. Remove Media Plate from incubator and mix with pipettor as previous. Add 100 μl from each well of Media Plate to corresponding well in Cell Plate. Place Cell Plate in incubator overnight.
Perform ELISA to determine levels of secreted Aβ 1-40.
After 16 h incubation, spin Cell Plate for 8 min at 1200 rpm. The primary reading of Aβ 1-40 levels is done using PerkinElmer AlphaLISA technology. Follow the manufacturer's protocol for performing AlphaLISA in a white ½ area Optiwell plate using Row 12 for peptide standard (1:2 dilutions, starting at 15 ng/ml). Data are acquired using PerkinElmer Fusion-Alpha FP-HT, Alpha protocol (Count Time 0.6s, Count Time Ratio 30%:70%).
Export data from Fusion using Columnar Report format into a separate file for each plate. Upload data into Activity Base using RIA-DOSE-RESPONSE protocol (Version 1). Data from at least eight doses were fitted to a four parameter logistical model using XLfit software to determine potency.

[3] = footnote a: protocols described in Example 434A

H4 neuroglioma cell line stably expressing APP with the KM-NL Swedish mutation (H4-APPsw); soluble Amyloid Beta 1-40 (Aβ 1-40), sequence (P56817 46-501 limits assumed, change not shown): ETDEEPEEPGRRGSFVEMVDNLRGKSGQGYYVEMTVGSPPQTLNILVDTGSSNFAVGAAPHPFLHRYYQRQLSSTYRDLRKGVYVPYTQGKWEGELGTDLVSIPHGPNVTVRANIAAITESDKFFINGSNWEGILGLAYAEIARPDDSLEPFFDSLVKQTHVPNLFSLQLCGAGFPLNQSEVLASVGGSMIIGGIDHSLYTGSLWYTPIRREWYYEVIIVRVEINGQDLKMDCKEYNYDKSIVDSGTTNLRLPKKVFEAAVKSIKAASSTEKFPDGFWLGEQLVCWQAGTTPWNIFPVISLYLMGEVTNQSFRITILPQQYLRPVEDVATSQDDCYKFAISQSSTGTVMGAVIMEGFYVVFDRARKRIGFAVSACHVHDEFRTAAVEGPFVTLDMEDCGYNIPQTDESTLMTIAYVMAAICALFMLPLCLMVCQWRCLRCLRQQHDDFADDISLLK
truncated human beta-secretase (residues 1-458, His6-tagged at the C-terminus), sequence (P56817 22-458): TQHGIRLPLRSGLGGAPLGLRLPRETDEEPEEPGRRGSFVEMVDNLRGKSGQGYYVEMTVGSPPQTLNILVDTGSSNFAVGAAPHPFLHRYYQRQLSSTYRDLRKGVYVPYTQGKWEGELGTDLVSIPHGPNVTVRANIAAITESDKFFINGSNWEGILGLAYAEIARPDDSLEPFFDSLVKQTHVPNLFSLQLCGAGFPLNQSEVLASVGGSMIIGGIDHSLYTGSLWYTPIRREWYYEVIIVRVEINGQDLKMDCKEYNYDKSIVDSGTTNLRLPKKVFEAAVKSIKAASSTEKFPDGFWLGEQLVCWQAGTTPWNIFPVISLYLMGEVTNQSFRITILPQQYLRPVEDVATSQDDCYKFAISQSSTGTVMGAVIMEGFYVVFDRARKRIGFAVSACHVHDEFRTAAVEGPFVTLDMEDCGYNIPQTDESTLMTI

| Compound | IC50 [1] | IC50 [2] | IC50 [1, 3] |
| --- | --- | --- | --- |
| CCO[C@H]1CC[C@]2(CC1)Cc1ccc(-c3cccc(C#N)c3)cc1C21N=C(N)N(C)O1 (stereo partly shown) [Compound 28] | 41.7 nM | < 500 nM |  |
| CO[C@H]1CC2(Cc3ccc(-c4cccc(C#N)c4)cc3C23N=C(N)N(C)O3)C[C@H]1OC (stereo partly shown) [Compound 57] |  | < 5000 nM | 936 nM |
| CN1OC2(N=C1N)c1cc(-c3cccc(C(F)(F)F)c3)ccc1CC21CCc2ccccc2CC1 (stereo not shown) [Compound 39] | 158 nM | < 10000 nM |  |
| CN1OC2(N=C1N)c1cc(-c3cccc(C#N)c3)ccc1CC21CCCc2ccccc2C1 (stereo not shown) [Compound 46] |  | < 10000 nM | 293 nM |
| CN1OC2(N=C1N)c1cc(-c3cccc(C#N)c3)ccc1CC21C=CC(c2ccccc2)C1 (stereo not shown) [Compound 47] |  | < 10000 nM | 295 nM |
| COC1CCC2(CC1)Cc1ccc(C#CC3CC3)cc1C21N=C(N)N(C)O1 (stereo not shown) [Compound 3] |  | < 100 nM | 4.5 nM |
| CN1OC2(N=C1N)c1cc(-c3cccc(C#N)c3)ccc1CC21CCC(F)(F)CC1 (stereo not shown) [Compound 44] |  | < 5000 nM | 189 nM |
| CC1=C(C)CC2(CC1)Cc1ccc(-c3cccc(C#N)c3)cc1C21N=C(N)N(C)O1 (stereo not shown) [Compound 41] |  | < 5000 nM | 161 nM |
| COC1CCC2(CC1)Cc1ccc(-c3cc(C)cc(C)c3)cc1C21N=C(N)N(C)O1 (stereo not shown) [Compound 19] |  | < 500 nM | 14.6 nM |
| COC1CCC2(CC1)Cc1ccc(-c3cccc(C#N)c3)cc1C21N=C(N)N(C)O1 (stereo not shown) [Compound 25] |  | < 100 nM | 26.2 nM |
| COC1CCC2(CC1)Cc1ccc(-c3cc(F)cc(Cl)c3)cc1C21CC(=O)N(C)C(N)=N1 (stereo not drawn) [Compound 42, 2″-amino-1′″-methyl-6-(3-chloro-5-fluorophenyl)-1″H-spiro[spiro[2,3-dihydro-indene-2,1′-(trans-4-methoxycyclohexane)]-1,4′-pyrimidin]-6″(5″H)-one] | 173 nM | < 100 nM |  |
| CN1OC2(N=C1N)c1cc(-c3cccc(C#N)c3)ccc1CC21CCCC1 (stereo not shown) [Compound 50] |  | < 1000 nM | 443 nM |
| CN1OC2(N=C1N)c1cc(Br)ccc1CC21CCc2ccccc2CC1 (stereo not shown) [Compound 31] | 64 nM | < 5000 nM |  |
| COC1CCC2(CC1)Cc1ccc(-c3cccc(C(F)(F)F)c3)cc1C21N=C(N)N(C)O1 (stereo not shown) [Compound 20] |  | < 500 nM | 18.7 nM |
| CN1OC2(N=C1N)c1cc(-c3cccc(C#N)c3)ccc1CC21CC=C(F)CC1 (stereo not shown) [Compound 34] |  | < 1000 nM | 93.3 nM |
| CN1OC2(N=C1N)c1cc(-c3cccc(C#N)c3)ccc1CC21CCc2c(F)cccc2C1 (stereo not shown) [Compound 54] |  | < 5000 nM | 618 nM |
| COC1CCC2(CC1)Cc1ccc(-c3cc(F)cc(Cl)c3)cc1C21N=C(N)N(C)O1 (stereo not shown) [Compound 1] |  | < 100 nM | 2.6 nM |
